Measured values published in ChEMBL document CHEMBL4715829, “Heterodimeric Rifampicin-Tobramycin conjugates break intrinsic resistance of Pseudomonas aeruginosa to doxycycline and chloramphenicol in vitro and in a Galleria mellonella in vivo model” (Eur J Med Chem, 2019).

Tests used:
[1] = system: Enterobacter cloacae; test: Potentiation of chloramphenicol-induced antibacterial activity against Enterobacter cloacae ATCC 117029 assessed as fold change in chloramphenicol MIC at 9.8 uM incubated for 18 hrs in presence of chloramphenicol by broth microdilution assay relative to control; assay type: functional
[2] = system: Pseudomonas aeruginosa; test: Antibacterial activity against Pseudomonas aeruginosa 260-97103 assessed as fractional inhibitory concentration incubated for 18 hrs in presence of tigecycline by broth microdilution assay; assay type: functional
[3] = system: Pseudomonas aeruginosa; test: Antibacterial activity against Pseudomonas aeruginosa 259-96918 assessed as fractional inhibitory concentration index incubated for 18 hrs in presence of minocycline by broth microdilution assay; assay type: functional
[4] = system: Pseudomonas aeruginosa; test: Antibacterial activity against Pseudomonas aeruginosa 260-97103 assessed as potentiation of chloramphenicol-induced antibacterial activity by measuring chloramphenicol MIC at 9.8 uM incubated for 18 hrs in presence of chloramphenicol by broth microdilution assay (reference value: 128 ug/ml); assay type: functional
[5] = system: Escherichia coli; test: Potentiation of doxycycline-induced antibacterial activity against Escherichia coli ATCC 25922 assessed as fold change in doxycycline MIC at 9.8 uM incubated for 18 hrs in presence of doxycycline by broth microdilution assay relative to control; assay type: functional
[6] = system: Pseudomonas aeruginosa; test: Potentiation of doxycycline-induced antibacterial activity against Pseudomonas aeruginosa 101243 assessed as fold change in doxycycline MIC at 9.8 uM incubated for 18 hrs in presence of doxycycline by broth microdilution assay relative to control; assay type: functional
[7] = system: Pseudomonas aeruginosa; test: Antibacterial activity against Pseudomonas aeruginosa 259-96918 assessed as potentiation of chloramphenicol-induced antibacterial activity by measuring chloramphenicol MIC at 9.8 uM incubated for 18 hrs in presence of chloramphenicol by broth microdilution assay (reference value: 1024 ug/ml); assay type: functional
[8] = system: Pseudomonas aeruginosa; test: Antibacterial activity against Pseudomonas aeruginosa 114228 assessed as fractional inhibitory concentration incubated for 18 hrs in presence of tigecycline by broth microdilution assay; assay type: functional
[9] = system: Pseudomonas aeruginosa; test: Antibacterial activity against Pseudomonas aeruginosa 101243 assessed as fractional inhibitory concentration index incubated for 18 hrs in presence of rifampicin by broth microdilution assay; assay type: functional
[10] = system: Pseudomonas aeruginosa; test: Antibacterial activity against Pseudomonas aeruginosa 91433 assessed as fractional inhibitory concentration incubated for 18 hrs in presence of tigecycline by broth microdilution assay; assay type: functional
[11] = system: Pseudomonas aeruginosa; test: Antibacterial activity against Pseudomonas aeruginosa 264-101354 assessed as fractional inhibitory concentration index incubated for 18 hrs in presence of tigecycline by broth microdilution assay; assay type: functional
[12] = system: Pseudomonas aeruginosa; test: Antibacterial activity against Pseudomonas aeruginosa 114228 assessed as fractional inhibitory concentration index incubated for 18 hrs in presence of rifampicin by broth microdilution assay; assay type: functional
[13] = system: Pseudomonas aeruginosa; test: Antibacterial activity against Pseudomonas aeruginosa 91433 assessed as fractional inhibitory concentration incubated for 18 hrs in presence of minocycline by broth microdilution assay; assay type: functional
[14] = system: Pseudomonas aeruginosa; test: Antibacterial activity against Pseudomonas aeruginosa 91433 assessed as fractional inhibitory concentration index incubated for 18 hrs in presence of minocycline by broth microdilution assay; assay type: functional
[15] = system: Pseudomonas aeruginosa; test: Antibacterial activity against Pseudomonas aeruginosa 264-101354 assessed as fractional inhibitory concentration incubated for 18 hrs in presence of tigecycline by broth microdilution assay; assay type: functional
[16] = system: HepG2; test: Cytotoxicity against human HepG2 cells assessed as cell viability at 50 uM incubated for 48 hrs in presence of doxycycline by prestoblue assay; assay type: cell-based; details: hepg2, 48 h
[17] = system: Pseudomonas aeruginosa; test: Antibacterial activity against Pseudomonas aeruginosa 260-97103 infected in Galleria mellonella larvae assessed as survival of larvae treated at 3 hrs post-infection in presence of doxycycline and measured every 6 hrs for 36 hrs; assay type: functional, organism-based; details: dose 75-100 mg/kg
[18] = system: Klebsiella pneumoniae; test: Potentiation of chloramphenicol-induced antibacterial activity against Klebsiella pneumoniae ATCC 16381 assessed as fold change in chloramphenicol MIC at 9.8 uM incubated for 18 hrs in presence of chloramphenicol by broth microdilution assay relative to control; assay type: functional
[19] = system: Pseudomonas aeruginosa; test: Antibacterial activity against Pseudomonas aeruginosa 260-97103 infected in Galleria mellonella larvae assessed as survival of larvae at 75 mg/kg treated at 3 hrs post-infection in presence of doxycycline and measured after 18 hrs relative to control; assay type: functional
[20] = system: Pseudomonas aeruginosa; test: Antibacterial activity against Pseudomonas aeruginosa 101243 assessed as potentiation of doxycycline-induced antibacterial activity by measuring doxycycline MIC at 7.6 uM incubated for 18 hrs in presence of doxycycline by broth microdilution assay (reference value: 4 ug/ml); assay type: functional
[21] = system: Pseudomonas aeruginosa; test: Potentiation of chloramphenicol-induced antibacterial activity against Pseudomonas aeruginosa 262-101856 assessed as fold change in chloramphenicol MIC at 7.6 uM incubated for 18 hrs in presence of chloramphenicol by broth microdilution assay relative to control; assay type: functional
[22] = system: Pseudomonas aeruginosa; test: Antibacterial activity against Pseudomonas aeruginosa 91433 assessed as potentiation of doxycycline-induced antibacterial activity by measuring doxycycline MIC at 7.6 uM incubated for 18 hrs in presence of doxycycline by broth microdilution assay (reference value: 32 ug/ml); assay type: functional
[23] = system: Pseudomonas aeruginosa; test: Potentiation of doxycycline-induced antibacterial activity against Pseudomonas aeruginosa 114228 assessed as fold change in doxycycline MIC at 7.6 uM incubated for 18 hrs in presence of doxycycline by broth microdilution assay relative to control; assay type: functional
[24] = system: Pseudomonas aeruginosa; test: Antibacterial activity against Pseudomonas aeruginosa 101885 assessed as potentiation of chloramphenicol-induced antibacterial activity by measuring chloramphenicol MIC at 7.6 uM incubated for 18 hrs in presence of chloramphenicol by broth microdilution assay (reference value: 512 ug/ml); assay type: functional
[25] = system: Pseudomonas aeruginosa; test: Potentiation of doxycycline-induced antibacterial activity against Pseudomonas aeruginosa 262-101856 assessed as fold change in doxycycline MIC at 7.6 uM incubated for 18 hrs in presence of doxycycline by broth microdilution assay relative to control; assay type: functional
[26] = system: Pseudomonas aeruginosa; test: Antibacterial activity against Pseudomonas aeruginosa 101243 assessed as potentiation of chloramphenicol-induced antibacterial activity by measuring chloramphenicol MIC at 7.6 uM incubated for 18 hrs in presence of chloramphenicol by broth microdilution assay (reference value: 1 ug/ml); assay type: functional
[27] = system: Pseudomonas aeruginosa; test: Potentiation of chloramphenicol-induced antibacterial activity against Pseudomonas aeruginosa 259-96918 assessed as fold change in chloramphenicol MIC at 7.6 uM incubated for 18 hrs in presence of chloramphenicol by broth microdilution assay relative to control; assay type: functional
[28] = system: Pseudomonas aeruginosa; test: Antibacterial activity against Pseudomonas aeruginosa 260-97103 assessed as reduction in bacterial growth by measuring doxycycline MIC at 8 ug/ml incubated for 18 hrs in presence of doxycycline by broth microdilution assay (reference value: 16 ug/ml); assay type: functional; details: dose 8 µg/ml
[29] = system: Pseudomonas aeruginosa; test: Antibacterial activity against Pseudomonas aeruginosa 264-101354 assessed as reduction in bacterial growth by measuring chloramphenicol MIC at 4 ug/ml incubated for 18 hrs in presence of chloramphenicol by broth microdilution assay (reference value: 4096 ug/ml); assay type: functional; details: dose 4 µg/ml
[30] = system: Pseudomonas aeruginosa; test: Antibacterial activity against Pseudomonas aeruginosa 260-97103 assessed as reduction in bacterial growth by measuring doxycycline MIC at 2 ug/ml incubated for 18 hrs in presence of doxycycline by broth microdilution assay (reference value: 16 ug/ml); assay type: functional; details: dose 2 µg/ml

With `CO[C@H]1/C=C/O[C@@]2(C)Oc3c(C)c(O)c4c(O)c(c(/C=N/N5CCN(Cc6cn(CCCCCCO[C@@H]7[C@@H](O[C@H]8O[C@H](CO)[C@@H](O)[C@H](N)[C@H]8O)[C@H](N)C[C@H](N)[C@H]7O[C@H]7O[C@H](CN)[C@@H](O)C[C@H]7N)nn6)CC5)c(O)c4c3C2=O)NC(=O)/C(C)=C\C=C\[C@H](C)[C@H](O)[C@@H](C)[C@@H](O)[C@@H](C)[C@H](OC(C)=O)[C@@H]1C.Cl.Cl.Cl.Cl.Cl` the “fold change (FC)” value [1] was 0, the FIC [2] was <0.125 and the “fractional inhibitory concentration index (FICI)” value [3] was <0.16. The MIC [4] was 2 µg/mL, the “fold change (FC)” value [5] was 0 and the “fold change (FC)” value [6] was 4. For the same compound, the MIC [7] was 256 µg/mL, the FIC [8] was <0.031 and the “fractional inhibitory concentration index (FICI)” value [9] was 0.56. For the same compound, the FIC [10] was <0.125, the “fractional inhibitory concentration index (FICI)” value [11] was 0.19 and the “fractional inhibitory concentration index (FICI)” value [12] was <0.53. For the same compound, the FIC [13] was <0.125, the “fractional inhibitory concentration index (FICI)” value [14] was <0.25 and the FIC [15] was 0.063. For the same compound, the Activity [16] was “Non-Toxic”, the Activity [17] was “Dose-dependent effect” and the “fold change (FC)” value [18] was 0. The survival at 75 mg/kg [19] was 75%.
In the case of `CO[C@H]1/C=C/O[C@@]2(C)Oc3c(C)c(O)c4c(O)c(c(/C=N/N5CCN(Cc6cn(CCCCCCCCCCCCO[C@@H]7[C@@H](O[C@H]8O[C@H](CO)[C@@H](O)[C@H](N)[C@H]8O)[C@H](N)C[C@H](N)[C@H]7O[C@H]7O[C@H](CN)[C@@H](O)C[C@H]7N)nn6)CC5)c(O)c4c3C2=O)NC(=O)/C(C)=C\C=C\[C@H](C)[C@H](O)[C@@H](C)[C@@H](O)[C@@H](C)[C@H](OC(C)=O)[C@@H]1C.O=C(O)C(F)(F)F.O=C(O)C(F)(F)F.O=C(O)C(F)(F)F.O=C(O)C(F)(F)F.O=C(O)C(F)(F)F`, the MIC [20] was 0.125 µg/mL, the “fold change (FC)” value [21] was 4 and the MIC [22] was 0.25 µg/mL. For the same compound, the “fold change (FC)” value [23] was 4, the MIC [24] was 4 µg/mL and the “fold change (FC)” value [25] was 4. The MIC [26] was 0.0625 µg/mL and the “fold change (FC)” value [27] was 4.
Work on `NC[C@H]1O[C@H](O[C@H]2[C@H](O)[C@@H](O[C@H]3O[C@H](CO)[C@@H](O)[C@H](N)[C@H]3O)[C@H](N)C[C@@H]2N)[C@H](N)C[C@@H]1O` [TOBRAMYCIN] yielded an MIC [28] of 16 µg/mL.
In the case of `CO[C@H]1/C=C/O[C@@]2(C)Oc3c(C)c(O)c4c(O)c(c(/C=N/N5CCN(C)CC5)c(O)c4c3C2=O)NC(=O)/C(C)=C\C=C\[C@H](C)[C@H](O)[C@@H](C)[C@@H](O)[C@@H](C)[C@H](OC(C)=O)[C@@H]1C` [RIFAMPIN], the MIC [29] was 4100 µg/mL and the MIC [30] was 16 µg/mL.
